Test results reported in ChEMBL document CHEMBL4411295, “Discovery of novel nonsteroidal VDR agonists with novel diarylmethane skeleton for the treatment of breast cancer” (Eur J Med Chem, 2019).
Active and inactive are the calls of the source. No cut-off for these calls is given here.

How the values were obtained:
[1] = biological target: T1, Vitamin D3 receptor (Homo sapiens) (UniProt P11473); test: Binding affinity at VDR (unknown origin) assessed as relative VDR-probe inhibition at 1 uM by fluorescence polarization assay relative to 1,25(OH)2D3
T1 sequence (whole entry): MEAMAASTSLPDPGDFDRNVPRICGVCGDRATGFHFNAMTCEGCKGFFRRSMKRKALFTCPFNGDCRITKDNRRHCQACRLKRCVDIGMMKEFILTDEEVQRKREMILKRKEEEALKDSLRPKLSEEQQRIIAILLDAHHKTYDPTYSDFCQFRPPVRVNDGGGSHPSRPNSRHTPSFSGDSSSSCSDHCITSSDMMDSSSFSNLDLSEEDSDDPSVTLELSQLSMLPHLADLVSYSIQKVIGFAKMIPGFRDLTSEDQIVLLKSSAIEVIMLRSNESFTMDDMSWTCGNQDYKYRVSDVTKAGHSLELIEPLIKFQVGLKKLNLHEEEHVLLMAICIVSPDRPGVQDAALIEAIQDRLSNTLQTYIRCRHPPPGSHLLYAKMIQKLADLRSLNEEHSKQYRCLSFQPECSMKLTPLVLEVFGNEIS

MCF7 [2] = test: Induction of apoptosis in human MCF7 cells assessed as early apoptotic cells at 1 uM after 48 hrs by Annexin V-FITC/propidium iodide staining-based flow cytometric analysis (reference value: 3.80%); assay type: functional
MCF7 [3] = test: Induction of apoptosis in human MCF7 cells assessed as late apoptotic cells at 1 uM after 48 hrs by Annexin V-FITC/propidium iodide staining-based flow cytometric analysis (reference value: 1.61%); assay type: functional
MCF7 [4] = test: Induction of apoptosis in human MCF7 cells assessed as necrotic cells at 1 uM after 48 hrs by Annexin V-FITC/propidium iodide staining-based flow cytometric analysis (reference value: 0.29%); assay type: functional
MCF7 [5] = test: Induction of apoptosis in human MCF7 cells assessed as viable cells at 1 uM after 48 hrs by Annexin V-FITC/propidium iodide staining-based flow cytometric analysis (reference value: 94.3%); assay type: functional; settings: MCF7, 48 h, read-out: Activity
MCF7 [6] = test: Cell cycle arrest in human MCF7 cells assessed as accumulation at G0/G1 phase at 1 uM after 24 hrs by propidium iodide staining based flow cytometric analysis (reference value: 56.64%); assay type: functional
MCF7 [7] = test: Cell cycle arrest in human MCF7 cells assessed as accumulation at G2/M phase at 1 uM after 24 hrs by propidium iodide staining based flow cytometric analysis (reference value: 12.04%); assay type: functional
MCF7 [8] = test: Cell cycle arrest in human MCF7 cells assessed as accumulation at S phase at 1 uM after 24 hrs by propidium iodide staining based flow cytometric analysis (reference value: 31.32%); assay type: functional
MCF7 [9] = test: Antitumor activity against human MCF7 cells xenografted in BALB/C nude mouse assessed as reduction in tumor volume at 0.5 ug/kg, ip administered 3 times per week; assay type: functional, organism-based
Mus musculus = test: Hypercalcemic effect in BALB/C nude mouse xenografted with human MCF7 cells at 0.5 ug/kg, ip administered 3 times per week measured after 15 days; assay type: ADME, organism-based; settings: in vivo, 0.0005 mg/kg, 360 h
MCF7 [10] = test: Induction of apoptosis in human MCF7 cells assessed as increase in p21 expression at 0.5 uM after 24 hrs by qPCR analysis; assay type: functional, cell-based
MCF7 [11] = test: Induction of apoptosis in human MCF7 cells assessed as increase in p21 level at 0.5 uM after 24 hrs by Western blot analysis; assay type: functional, cell-based
MCF7 [12] = test: Induction of apoptosis in human MCF7 cells assessed as reduction in Bcl2 expression at 0.5 uM after 24 hrs by qPCR analysis; assay type: functional, cell-based
MCF7 [13] = test: Induction of apoptosis in human MCF7 cells assessed as reduction in Bcl2 level at 0.5 uM after 24 hrs by Western blot analysis; assay type: functional, cell-based
MCF7 [14] = test: Induction of apoptosis in human MCF7 cells assessed as increase in Bax expression at 0.5 uM after 24 hrs by qPCR analysis; assay type: functional, cell-based
MCF7 [15] = test: Induction of apoptosis in human MCF7 cells assessed as increase in Bax level at 0.5 uM after 24 hrs by Western blot analysis; assay type: functional, cell-based
MCF7 [16] = test: Antiproliferative activity against human MCF7 cells after 24 hrs by MTT assay; assay type: functional, cell-based; settings: MCF7, 24 h
MCF7 [17] = test: Induction of apoptosis in human MCF7 cells at 0.5 uM after 48 hrs by Annexin V-FITC/propidium iodide staining-based flow cytometric analysis; assay type: functional, cell-based
L02 = test: Cytotoxicity against human LO2 cells assessed as reduction in cell viability after 24 hrs by MTT assay; assay type: cell-based; settings: L02, 24 h

Row | Compound | inhibition [1] [%] | Activity (MCF7 [10]) | Activity (MCF7 [11]) | Activity (MCF7 [12]) | Activity (MCF7 [13]) | Activity (MCF7 [14]) | Activity (MCF7 [15]) | further results
1 | CCN(CC)CCNC(=O)c1cc(C(CC)(CC)c2ccc(C#CC(C)(C)O)c(C)c2)cn1CC | 56.3 | – | – | – | – | – | – | –
2 | CCN(CC)CCNC(=O)c1cc(C(CC)(CC)c2ccc(C#CC(C)(O)CC)c(C)c2)cn1CC (configuration not stated) | 59.2 | – | – | – | – | – | – | –
3 | C=C1/C(=C\C=C2/CCC[C@]3(C)[C@@H]([C@H](C)/C=C/[C@@H](O)C4CC4)CC[C@@H]23)C[C@@H](O)C[C@@H]1O [CALCIPOTRIENE] | – | – | – | – | – | – | – | Activity (MCF7 [2]): 15.1%; Activity (MCF7 [3]): 3.77%; Activity (MCF7 [4]): 0.31%; viability at 1 µM (MCF7 [5]): 80.8%; Activity (MCF7 [6]): 63%; Activity (MCF7 [7]): 12.55%; Activity (MCF7 [8]): 24.45%
4 | C=C1/C(=C\C=C2/CCC[C@]3(C)[C@@H]([C@H](C)CCCC(C)(C)O)CC[C@@H]23)C[C@@H](O)C[C@@H]1O [CALCITRIOL] | – | – | – | – | – | – | – | Activity (MCF7 [2]): 14%; Activity (MCF7 [3]): 3.88%; Activity (MCF7 [4]): 0.4%; viability at 1 µM (MCF7 [5]): 81.8%; Activity (MCF7 [6]): 70.33%; Activity (MCF7 [7]): 4.11%; Activity (MCF7 [8]): 25.56%; Activity (MCF7 [9]): inactive; Activity (Mus musculus): Toxic
5 | CCCC(O)(C#Cc1ccc(C(CC)(CC)c2cc(C(=O)NCCN(CC)CC)n(CC)c2)cc1C)CCC | 51.1 | Active | Active | Active | Active | Active | Active | –
6 | CCN(CC)CCNC(=O)c1cc(C(CC)(CC)c2ccc(C#CC3(O)CCCCC3)c(C)c2)cn1CC | 44.2 | – | – | – | – | – | – | IC50 (MCF7 [16]): 3.07 µM
7 | CCCC(O)(C#Cc1ccc(C(CC)(CC)c2ccc(C(=O)NCCN(CC)CC)n2CC)cc1C)CCC | 52.1 | – | – | – | – | – | – | –
8 | CCN(CC)CCNC(=O)c1ccc(C(CC)(CC)c2ccc(C#CC(C)(O)CC)c(C)c2)n1CC (configuration not stated) | 63.4 | Active | Active | Active | Active | Active | Active | Activity (MCF7 [17]): Active
9 | CCN(CC)CCNC(=O)c1ccc(C(CC)(CC)c2ccc(C#CC(C)(C)O)c(C)c2)n1CC | 60.2 | Active | Active | Active | Active | Active | Active | –
10 | CCN(CC)CCNC(=O)c1cc(C(CC)(CC)c2ccc(C#CC3(O)CCC3)c(C)c2)cn1CC | 49.3 | Active | Active | Active | Active | Active | Active | IC50 (MCF7 [16]): 1.28 µM; IC50 (L02): > 50 µM
